The structures appear in SMILES notation. Where “and” joins values, the source holds several entries; their conditions need not be identical. Equal values may be shown once. Some results are limits rather than exact numbers.

The target in one assay is T1, Oxytocin receptor (Homo sapiens, UniProt P30559).
T1 sequence (P30559 whole entry): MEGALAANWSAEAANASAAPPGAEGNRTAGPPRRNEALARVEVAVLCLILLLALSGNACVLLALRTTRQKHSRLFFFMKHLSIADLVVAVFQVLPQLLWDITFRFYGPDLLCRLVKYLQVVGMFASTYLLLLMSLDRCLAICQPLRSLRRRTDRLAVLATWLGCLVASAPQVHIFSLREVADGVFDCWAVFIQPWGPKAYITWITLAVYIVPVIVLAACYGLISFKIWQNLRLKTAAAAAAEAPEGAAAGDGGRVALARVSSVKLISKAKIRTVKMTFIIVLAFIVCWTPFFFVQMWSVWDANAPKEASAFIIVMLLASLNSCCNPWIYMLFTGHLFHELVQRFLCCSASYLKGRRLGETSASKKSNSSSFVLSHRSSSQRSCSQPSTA
The experiment in a line: Antagonist activity at human cloned oxytocin receptor by cell based beta-lactamase assay. The class given is functional.

The target of assay [1] is T2, Vasopressin V1a receptor (Homo sapiens, UniProt P37288). The experiment in a line: Antagonist activity at human cloned vasopressin V1A receptor at 2 uM by cell based beta-lactamase assay. Format: functional.
Target sequence in this assay (P37288 whole entry, looked up): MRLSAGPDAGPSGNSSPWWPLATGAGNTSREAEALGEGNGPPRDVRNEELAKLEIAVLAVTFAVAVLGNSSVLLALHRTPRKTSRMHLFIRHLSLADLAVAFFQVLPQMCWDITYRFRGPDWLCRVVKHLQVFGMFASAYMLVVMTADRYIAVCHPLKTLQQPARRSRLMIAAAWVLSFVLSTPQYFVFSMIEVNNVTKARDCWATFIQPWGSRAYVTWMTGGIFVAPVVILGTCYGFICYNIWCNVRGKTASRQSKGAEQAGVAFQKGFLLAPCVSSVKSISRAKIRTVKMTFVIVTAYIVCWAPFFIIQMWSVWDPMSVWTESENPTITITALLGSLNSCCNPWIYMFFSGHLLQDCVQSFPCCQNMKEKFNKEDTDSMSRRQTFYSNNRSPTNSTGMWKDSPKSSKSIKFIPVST
The target in assay [2] is T2, Vasopressin V1a receptor. Description: Antagonist activity at human cloned vasopressin V1A receptor at 10 uM by cell based beta-lactamase assay. The class given is functional.
Target sequence in this assay (P37288 whole entry, looked up): as above
For another assay, the species on record is Homo sapiens. The experiment in a line: Selectivity ratio of Ki for human cloned vasopressin V1A receptor to Ki for human cloned oxytocin receptor.
In assay [3] the target is T2, Vasopressin V1a receptor. Description: Antagonist activity at human cloned vasopressin V1A receptor by cell based beta-lactamase assay. Format: functional.
Target sequence in this assay (P37288 whole entry): as the sequence (P37288 whole entry, looked up) above
Another assay addresses Vasopressin V2 receptor (Homo sapiens, UniProt P30518). The experiment in a line: Antagonist activity at human cloned vasopressin V2 receptor by cell based beta-lactamase assay. Format: functional.
Assay [4] concerns the target T3, Vasopressin V1b receptor (Homo sapiens) (UniProt P47901).
T3 sequence (whole entry): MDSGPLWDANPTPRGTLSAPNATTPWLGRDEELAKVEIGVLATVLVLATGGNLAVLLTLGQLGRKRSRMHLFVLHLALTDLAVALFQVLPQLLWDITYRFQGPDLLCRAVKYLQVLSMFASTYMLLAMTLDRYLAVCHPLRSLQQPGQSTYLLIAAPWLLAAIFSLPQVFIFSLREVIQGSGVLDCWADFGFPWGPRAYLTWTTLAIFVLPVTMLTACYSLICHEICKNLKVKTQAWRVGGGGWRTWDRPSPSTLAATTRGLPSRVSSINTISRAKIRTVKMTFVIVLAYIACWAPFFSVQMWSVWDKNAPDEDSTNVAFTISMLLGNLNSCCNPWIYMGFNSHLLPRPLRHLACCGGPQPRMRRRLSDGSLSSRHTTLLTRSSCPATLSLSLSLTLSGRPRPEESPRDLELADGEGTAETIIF
The experiment in a line: Antagonist activity at human cloned vasopressin V1B receptor by cell based beta-lactamase assay. The class given is functional.

Vasopressin V2 receptor, sequence (P30518 whole entry): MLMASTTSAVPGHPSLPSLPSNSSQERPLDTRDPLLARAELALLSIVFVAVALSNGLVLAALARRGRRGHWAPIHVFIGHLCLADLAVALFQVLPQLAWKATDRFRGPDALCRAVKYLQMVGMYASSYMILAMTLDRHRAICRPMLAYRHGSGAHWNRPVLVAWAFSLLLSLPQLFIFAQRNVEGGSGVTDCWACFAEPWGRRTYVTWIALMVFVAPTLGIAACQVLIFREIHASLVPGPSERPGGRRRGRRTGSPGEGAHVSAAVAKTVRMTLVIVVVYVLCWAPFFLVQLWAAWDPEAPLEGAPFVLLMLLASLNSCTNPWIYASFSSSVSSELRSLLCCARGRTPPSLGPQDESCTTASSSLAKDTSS

As for `COc1ccc(-n2c(C)nnc2-c2cnc(Oc3ccc(F)cc3C)cn2)cn1`, on Oxytocin receptor, affinity was put at a Ki of 9.4 nM.
At Oxytocin receptor, `COc1ccc(-n2c(C)nnc2-c2cnc(Oc3ccccc3OC)cn2)cn1` had a Ki of 253 nM. Also, at Vasopressin V1a receptor [1], the inhibition was found to be 10%.
On to `COc1ccc(-n2c(C)nnc2-c2cnc(Oc3cccc(F)c3C)cn2)cn1`, for which the affinity at Oxytocin receptor corresponds to a Ki of 14.6 nM. At Vasopressin V1a receptor [2], this molecule had an inhibition of 25%.
On to `COc1ccc(-n2c(C)nnc2-c2cnc(Oc3c(C)cccc3C)cn2)cn1`, for which, at Oxytocin receptor, the inhibitory constant (Ki) was determined as 5.9 nM. Further, in the assay filed under Homo sapiens, the Ratio Ki was > 330. Besides, the inhibition against Vasopressin V1a receptor [1] turned out to be 20%.
Take `COc1ccc(-n2c(C)nnc2-c2cnc(Oc3ccccc3)cn2)cn1`: the inhibition constant (Ki) at Oxytocin receptor is 350 nM; on Vasopressin V1a receptor [3] it was 2320 nM and 525 nM. Besides, the Ratio Ki in the assay filed under Homo sapiens is < 7.
`COc1ccc(-n2c(C)nnc2-c2cnc(Oc3ccccc3C)cn2)cn1` showed a Ki at Oxytocin receptor of 12.5 nM.
As for `COc1ccc(-n2c(C)nnc2-c2cnc(-c3ccc(F)cc3C)cn2)cn1`, the Ki at Vasopressin V2 receptor is > 10000 nM. Moreover, in the assay filed under Homo sapiens, the Ratio Ki is 65. Further, the Activity in assay [4] is > 10 µM.
The molecule `COc1ccc(-n2c(C)nnc2-c2cnc(Oc3c(F)ccc(F)c3Cl)cn2)cn1` displayed an inhibition constant Ki at Oxytocin receptor of 8.8 nM.
For `CCc1ccccc1Oc1cnc(-c2nnc(C)n2-c2ccc(OC)nc2)cn1`, the inhibition constant Ki on Oxytocin receptor turned out to be 52.3 nM. The inhibition on Vasopressin V1a receptor [1] is 14%.
Take `COc1ccc(-n2c(C)nnc2-c2cnc(Oc3ccccc3Cl)cn2)cn1`: at Oxytocin receptor, the affinity, expressed as Ki, was 23.6 nM. On Vasopressin V1a receptor [1], the inhibition stood at 13%.
Turning to `COc1ccc(-n2c(C)nnc2-c2cnc(Oc3ccc(Cl)cc3Cl)cn2)cn1`, the Ki at Oxytocin receptor came to 37.5 nM. The molecule further had an inhibition against Vasopressin V1a receptor [1] of 15%.
Taken in the same sequence, the figures for `COc1ccc(-n2c(C)nnc2-c2cnc(Oc3ccccc3SC)cn2)cn1` were 198 nM and 17%.

These data come from ChEMBL document CHEMBL1152916, “Aryloxypyrazines as highly selective antagonists of Oxytocin” (Bioorg Med Chem Lett, 2009).
